Test results: EP0422215B1, “ANTIBACTERIAL AND AN[…]” (THE ROCKEFELLER UNIVERSITY, priority 1989, dated 1990)
Where no end group is shown, it is not given here.

Assays:
Assay type in all cases: cell-based
[1] = system: Sheep Red Cells; assay: lysis of sheep red blood cells (lysis assay or inhibition zone plate assay with SRC); details: for concentration lytic to sheep red blood cells: stated in running text; for LETHAL CONCENTRATION SRC: SRC = Sheep Red Cells, ? indicates turbid zone (melittin gives clear zone)
Procedure: These values were obtained by either the lysis assay normally used for melittin or by an adaptation of the antibacterial inhibition zone assay of the above-cited Hultmark et al. articles to plates with sheep red cells (SRC). With respect to the latter, sterile agarose plates contained 6 ml of medium with 1% agarose, 0.9% NaCl and 10% SRC suspended in Alsevers solution. A dilution series of peptide was applied in 3mm wells each loaded with 3 µl of the respective samples. The plates were incubated at 30°C for 24 h, the zones were recorded and LC values calculated as described in the Hultmark et al. articles. Clear zones were recorded after a few hours of incubation and the use of such data gave an LC value of the same order as readings after 24 h. This plate assay is faster and more convenient than the lysis assay normally used for melittin.

[2] = system: B. subtilis Bsll; details: overnight incubation at 30°C; for LETHAL CONCENTRATION Bsll + ME: B. subtilis, plates prepared with medium E; for LETHAL CONCENTRATION Bsll: Bsll = B. subtilis, thin agarose plates
Procedure: (§1) The products of the invention were tested for activity against a variety of test organisms selected to represent a number of different types of pathogens some of them known to be particularly virulent by the inhibition zone assay of Hoffmann et al. (1981) Insect Biochem. 11 537-548. Thin agar or agarose plates (8.5 cm diameter) were prepared with 6 ml of rich medium containing 100 µg/ml of streptomycin and 2 x 10^5 viable cells of a test organism resistant to streptomycin. Wells of […] were punched in the plates and 3 µl of serially diluted samples were placed in the wells. The diameters of the zones of inhibition around the wells were measured after overnight incubation at 30° or 37°C. For each peptide the squares of the zone diameters were plotted against the logarithm of the concentration, and from the slopes and intercepts the lethal concentrations were calculated as described by Hultmark (1983) EMBO J. 2, 571-76 or Hultmark et al. (1982) Eur. J. Biochem. 127 207-217.
(§2) Novel peptides CA(1-8)M(1-18), CA(1-9)M(1-17), CB(1-13)M(1-13), CA(1-17)M(1-9), CA(1-18)M(1-8), M(1-13)CA(1-22) and M(1-13)CA(1-13) were prepared as described above (see Examples 1-6). These novel peptides and CA, CB, and M were tested for activity against a variety of organisms selected to represent a number of different types of pathogens, some of them known to be particularly virulent, by the inhibition zone assay of Hoffmann et al. (1981), Insect Biochem. 11 537-48. As in Examples 1-6, thin agarose plates were prepared with the respective organisms. The diameters of the zones of inhibition were measured after overnight incubation at 30°C. The lethal concentrations were determined as described above (see Examples 1-6; Hultmark et al. articles cited thereat).

[3] = system: E. coli D21; details: thin agarose plates, overnight incubation at 30°C
Procedure: as §1, §2

[4] = system: P. aeruginosa OT97; details: thin agarose plates, overnight incubation at 30°C
Procedure: as §1, §2

[5] = system: S. aureus Cowan I; details: thin agarose plates, 30°C, * indicates flat concentration dependence
Procedure: as §1, §2

[6] = system: S. pyogenes; details: thin agarose plates, overnight incubation at 30°C
Procedure: as §1, §2

| Compound | fold improvement over natural melittin in lysis of red cells ([1]; compared with melittin) | concentration lytic to sheep red blood cells [1] [µM] | LETHAL CONCENTRATION Bsll + ME [2] [µM] | LETHAL CONCENTRATION Bsll [2] [µM] | LETHAL CONCENTRATION D21 [3] [µM] | LETHAL CONCENTRATION OT97 [4] [µM] | LETHAL CONCENTRATION Staph [5] | LETHAL CONCENTRATION Strep [6] [µM] | LETHAL CONCENTRATION SRC [1] | concentration lytic to sheep red blood cells ([1]; listed as CA(1-13) M(1-13)) |
| --- | --- | --- | --- | --- | --- | --- | --- | --- | --- | --- |
| CC[C@H](C)[C@H](NC(=O)CNC(=O)[C@H](CCC(N)=O)NC(=O)[C@H](CCC(N)=O)NC(=O)[C@H](CCCNC(=N)N)NC(=O)[C@H](CCCCN)NC(=O)[C@H](CCCNC(=N)N)NC(=O)[C@H](CCCCN)NC(=O)[C@@H](NC(=O)[C@H](Cc1c[nH]c2ccccc12)NC(=O)[C@H](CO)NC(=O)[C@@H](NC(=O)[C@@H](N)CC(C)C)[C@@H](C)CC)[C@@H](C)CC)C(=O)NCC(=O)N[C@@H](C)C(=O)N[C@H](C(=O)N[C@@H](CC(C)C)C(=O)N[C@@H](CCCCN)C(=O)N[C@H](C(=O)N[C@@H](CC(C)C)C(=O)N[C@H](C(=O)N[C@H](C(=O)NCC(=O)N[C@@H](CC(C)C)C(N)=O)[C@@H](C)O)[C@@H](C)O)C(C)C)C(C)C [M(16-26)M(1-13)] | 40-60 fold | > 240 | – | – | – | – | – | – | – | – |
| CC[C@H](C)[C@H](NC(=O)CNC(=O)[C@@H]1CCCN1C(=O)CNC(=O)[C@H](C)NC(=O)[C@H](CCCCN)NC(=O)[C@@H](NC(=O)[C@@H](NC(=O)CNC(=O)[C@H](CC(=O)O)NC(=O)[C@H](CCCNC(=N)N)NC(=O)[C@@H](NC(=O)[C@H](CC(N)=O)NC(=O)[C@H](CCC(N)=O)NC(=O)CNC(=O)[C@@H](NC(=O)[C@H](CCCCN)NC(=O)[C@H](CCC(=O)O)NC(=O)[C@@H](NC(=O)[C@H](CCCCN)NC(=O)[C@H](CCCCN)NC(=O)[C@H](Cc1ccccc1)NC(=O)[C@H](CC(C)C)NC(=O)[C@H](CCCCN)NC(=O)[C@H](Cc1c[nH]c2ccccc12)NC(=O)[C@@H](N)CCCCN)[C@@H](C)CC)C(C)C)[C@@H](C)CC)[C@@H](C)CC)[C@@H](C)CC)C(=O)NCC(=O)N[C@@H](C)C(=O)N[C@H](C(=O)N[C@@H](CC(C)C)C(=O)N[C@@H](CCCCN)C(=O)N[C@H](C(=O)N[C@@H](CC(C)C)C(=O)N[C@H](C(=O)N[C@H](C(=O)NCC(=O)N[C@@H](CC(C)C)C(N)=O)[C@@H](C)O)[C@@H](C)O)C(C)C)C(C)C [CA(1-24)M(1-13)] | – | > 100 | – | – | – | – | – | – | – | – |
| CC[C@H](C)[C@H](NC(=O)CN)C(=O)NCC(=O)N[C@@H](C)C(=O)N[C@H](C(=O)N[C@@H](CC(C)C)C(=O)N[C@@H](CCCCN)C(=O)N[C@H](C(=O)N[C@@H](CC(C)C)C(=O)N[C@H](C(=O)N[C@H](C(=O)NCC(=O)N[C@@H](CC(C)C)C(=O)N1CCC[C@H]1C(=O)N[C@@H](C)C(=O)N[C@@H](CC(C)C)C(=O)N[C@H](C(=O)N[C@@H](CO)C(=O)N[C@@H](Cc1c[nH]c2ccccc12)C(=O)N[C@H](C(=O)N[C@@H](CCCCN)C(=O)N[C@@H](CCCNC(=N)N)C(=O)N[C@@H](CCCCN)C(=O)N[C@@H](CCCNC(=N)N)C(=O)N[C@@H](CCC(N)=O)C(=O)N[C@@H](CCC(N)=O)C(N)=O)[C@@H](C)CC)[C@@H](C)CC)[C@@H](C)O)[C@@H](C)O)C(C)C)C(C)C [M(1-26), reference compound] | – | – | 0.3 | 0.2 | 0.8 | 3 | 0.2 µM | 0.5 | 4 to 8 µM | – |
| CC[C@H](C)[C@H](NC(=O)[C@H](CC(C)C)NC(=O)[C@H](C)NC(=O)[C@@H]1CCCN1C(=O)[C@H](CC(C)C)NC(=O)CNC(=O)[C@@H](NC(=O)[C@@H](NC(=O)[C@H](CC(C)C)NC(=O)[C@@H](NC(=O)[C@H](CCCCN)NC(=O)[C@H](CC(C)C)NC(=O)[C@@H](NC(=O)[C@H](C)NC(=O)CNC(=O)[C@@H](NC(=O)CNC(=O)[C@H](CCC(=O)O)NC(=O)[C@@H](NC(=O)[C@H](CCCCN)NC(=O)[C@H](CCCCN)NC(=O)[C@H](Cc1ccccc1)NC(=O)[C@H](CC(C)C)NC(=O)[C@H](CCCCN)NC(=O)[C@H](Cc1c[nH]c2ccccc12)NC(=O)[C@@H](N)CCCCN)[C@@H](C)CC)[C@@H](C)CC)C(C)C)C(C)C)[C@@H](C)O)[C@@H](C)O)C(N)=O [CA(1-9)M(1-17)] | – | – | 0.9 | 0.7 | 0.3 | 1 | 6 µM | 0.3 | >600 µM | – |
| CC[C@H](C)[C@H](NC(=O)CNC(=O)[C@H](CCC(N)=O)NC(=O)CNC(=O)[C@@H](NC(=O)[C@H](CCCCN)NC(=O)[C@H](CCC(=O)O)NC(=O)[C@@H](NC(=O)[C@H](CCCCN)NC(=O)[C@H](CCCCN)NC(=O)[C@H](Cc1ccccc1)NC(=O)[C@H](CC(C)C)NC(=O)[C@H](CCCCN)NC(=O)[C@H](Cc1c[nH]c2ccccc12)NC(=O)[C@@H](N)CCCCN)[C@@H](C)CC)C(C)C)C(=O)NCC(=O)N[C@@H](C)C(=O)N[C@H](C(=O)N[C@@H](CC(C)C)C(=O)N[C@@H](CCCCN)C(=O)N[C@H](C(=O)N[C@@H](CC(C)C)C(=O)N[C@H](C(=O)N[C@H](C(=O)NCC(=O)N[C@@H](CC(C)C)C(N)=O)[C@@H](C)O)[C@@H](C)O)C(C)C)C(C)C [CA(1-13)M(1-13)] | – | > 100 | – | – | – | – | – | – | – | greater than 200 µM |
| CC[C@H](C)[C@H](NC(=O)CN)C(=O)NCC(=O)N[C@@H](C)C(=O)N[C@H](C(=O)N[C@@H](CC(C)C)C(=O)N[C@@H](CCCCN)C(=O)N[C@H](C(=O)N[C@@H](CC(C)C)C(=O)N[C@H](C(=O)N[C@H](C(=O)NCC(=O)N[C@@H](CC(C)C)C(=O)N[C@@H](CCCCN)C(=O)N[C@@H](Cc1c[nH]c2ccccc12)C(=O)N[C@@H](CCCCN)C(=O)N[C@@H](CC(C)C)C(=O)N[C@@H](Cc1ccccc1)C(=O)N[C@@H](CCCCN)C(=O)N[C@@H](CCCCN)C(=O)N[C@H](C(=O)N[C@@H](CCC(=O)O)C(=O)N[C@@H](CCCCN)C(=O)N[C@H](C(=O)NCC(=O)N[C@@H](CCC(N)=O)C(N)=O)C(C)C)[C@@H](C)CC)[C@@H](C)O)[C@@H](C)O)C(C)C)C(C)C [M(1-13)CA(1-13)] | – | – | 0.1 | 0.3 | 1 | 5 | 5* µM | 1 | 80? µM | – |
| KWKLFKKIEKVGQNIRDGGIGAVLKV-NH2 [CA(1-18)M(1-8)] | – | – | 20 | 4 | 1 | 15 | >600 µM | 3 | >600 µM | – |
| CC[C@H](C)[C@H](NC(=O)CN)C(=O)NCC(=O)N[C@@H](C)C(=O)N[C@H](C(=O)N[C@@H](CC(C)C)C(=O)N[C@@H](CCCCN)C(=O)N[C@H](C(=O)N[C@@H](CC(C)C)C(=O)N[C@H](C(=O)N[C@H](C(=O)NCC(=O)N[C@@H](CC(C)C)C(=O)N[C@@H](CCCCN)C(=O)N[C@@H](Cc1c[nH]c2ccccc12)C(=O)N[C@@H](CCCCN)C(=O)N[C@@H](CC(C)C)C(=O)N[C@@H](Cc1ccccc1)C(=O)N[C@@H](CCCCN)C(=O)N[C@@H](CCCCN)C(=O)N[C@H](C(=O)N[C@@H](CCC(=O)O)C(=O)N[C@@H](CCCCN)C(=O)N[C@H](C(=O)NCC(=O)N[C@@H](CCC(N)=O)C(=O)N[C@@H](CC(N)=O)C(=O)N[C@H](C(=O)N[C@@H](CCCNC(=N)N)C(=O)N[C@@H](CC(=O)O)C(=O)NCC(=O)N[C@H](C(=O)N[C@H](C(=O)N[C@@H](CCCCN)C(=O)N[C@@H](C)C(N)=O)[C@@H](C)CC)[C@@H](C)CC)[C@@H](C)CC)C(C)C)[C@@H](C)CC)[C@@H](C)O)[C@@H](C)O)C(C)C)C(C)C [M(1-13)CA(1-22)] | – | – | 0.2 | – | 0.7 | – | 5* µM | 1 | 40? µM | – |
